Measured values published in patent US20250114353A1, “Combination Treatment Regimens - SMARCA2 Degrader With Gemcitabine” (priority 2023, published 2025).

Tested on: NCI-H838 tumors
Experiment: NCI-H838 tumor bearing mouse model (SMARCA4-deficient lung cancer xenograft), tumor growth inhibition
Assay type: in vivo
Conditions: NOD/SCID female mice, NCI-H838-#5 s.c. xenograft, versus vehicle
Procedure: NOD/SCID female mice were inoculated subcutaneously with NCI-H838-#5 cells (5×10^6) into the right flank in PBS 0.1 ml mixed with Matrigel.
As used herein, tumor growth inhibition is calculated as follows: Mean % Inhibition=(mean(C)−mean(T))/mean(C)*100%, wherein C is the tumor volume in the control arm, and T is the tumor volume in the treatment arm.
The NCI-H838-#5 tumor cells are maintained in vitro with RPMI1640 medium supplemented with 10% fetal bovine serum at 37° C. in an atmosphere of 5% CO2 in air. The cells in exponential growth phase are harvested and quantitated by cell counter before tumor inoculation. NOD-SCID female mice are inoculated subcutaneously in the right front flank region with NCI-H838-#5 tumor cells (5×10^6) in 0.1 ml of PBS mixed with Matrigel (1:1) for tumor development. The randomization is performed when the mean tumor size reaches approximately 100-150 mm^3.
For the NCI-H838 CDX model, mice are inoculated subcutaneously with the NCI-H838 tumor cells (5×10^6).

| Compound | tumor growth inhibition (TGI) (single agent gemcitabine 100 mg/kg i.v. BIW) | tumor growth inhibition (TGI) (single agent Formula (I) 100 mg/kg s.c. Q3D) |
| --- | --- | --- |
| Nc1ccn([C@@H]2O[C@H](CO)[C@@H](O)C2(F)F)c(=O)n1 [gemcitabine, 4-amino-1-((2R,4R,5R)-3,3-difluoro-4-hydroxy-5-(hydroxymethyl)tetrahydrofuran-2-yl)pyrimidin-2(1H)-one] | significant tumor growth inhibition | – |
| Cc1ncsc1-c1ccc([C@H](C)NC(=O)[C@@H]2C[C@@H](O)CN2C(=O)[C@@H](c2cc(O[C@@H](C)CN3CC[C@@H](N4CCN5c6cc(-c7ccccc7O)nnc6NC[C@H]5C4)C3)no2)C(C)C)cc1 [Formula (I)] | – | significantly inhibits the growth of NCI-H838 tumors |
